Results published in patent US20260248788A1, “NEW COMPOUNDS AND TREATMENT OF RENAL CELL CARCINOMA” (TRUSTLIFE THERAPEUTICS INC., priority 2023, published 2026).
Entries after “also recorded” stand apart in the source; their conditions may differ.

How the values were obtained:
Type in all cases: cell-based, human
Caki-1 cells [1] = experiment: LDH cytotoxicity assay; settings: Caki-1, 10 nM-30 μM
Caki-1 cells [2] = experiment: MTT cell viability assay
BUB1B [3] = experiment: Western blot of BUB1B protein level in drug-treated Caki-1; settings: Caki-1, TG-101209 6 nM, 24 h, vs DMSO negative control
Procedure: Cell culture 1: Human clear cell renal cell carcinoma (ccRCC) cell line Caki-1 was obtained from the Karolinska Institute of Environmental Medicine, Stockholm, Sweden, derived from a ccRCC patient. The cells were cultured in RPMI 1640 medium with 10% fetal bovine serum (FBS) and 1% penicillin/streptomycin. The cells were cultivated at 37° C. in a humidified incubator with 5% CO2.
TG-101209, NVP-TAE684, MK-0752, actinomycin-d, and panobinostat were purchased from Selleckchem (S2692, S1108, S2660, S8964, S1030, Selleckchem, Houston, TX, USA), and withaferin-a was purchased from Sigma (W4394, Sigma-Aldrich, Saint Louis, MO, USA). These drugs were dissolved in DMSO. The cells (from cell culture 1) were seeded in a 96-well plate at 20×10^3 cells per well. After seeding for 24 h, the cells were treated for 24 h with the target drugs: TG-101209 (6 nM), NVP-TAE684 (3 nM), MK-0752 (5 nM), withaferin-a (4 μM), actinomycin-d (0.3 nM), and panobinostat (5 nM). The cells in the negative control group were only treated by DMSO for one day.
The cells were washed with phosphate-buffered saline (PBS) and lysed with CelLytic M (C2978, Sigma-Aldrich, Saint Louis, MO, USA) lysis buffer containing protease inhibitors. […] The protein bands were detected with ImageQuanat™ LAS 500 (29-0050-63, GE) automatic exposure procedure or 6 min exposure.

BUB1B [4] = experiment: Western blot of BUB1B in Caki-1 cells treated with TG-101209 derivatives; settings: Caki-1 cells, 5 μM of target drug, 1 day (FIG. 41, 56)
Procedure: Cell culture 2: Caki-1 was purchased from CLS Cell Lines Service (Germany). The cells were maintained in McCoy's 5A (modified) medium (16600082, Thermo Fisher Scientific, USA) and supplemented with 10% fetal bovine serum (FBS, F7524, Sigma-Aldrich), 1% Penicillin/Streptomycin (P4333, Sigma-Aldrich).
The target drugs developed as alternatives to TG-101209, were dissolved in 0.1% DMSO (41639, Sigma-Aldrich). Caki-1 cells from cell culture 2 were seeded in a 6-well plate at 3×10^5 cells per well. […]
The cells were washed with PBS solution and then lysed with CelLytic M (C2978, Sigma-Aldrich) lysis buffer containing protease inhibitors (11836170001, Roche). The cell lysates were centrifuged at 12 000 rpm for 10 min and supernatants were collected. Protein Assay Dye Reagent (5000006, Bio-Rad) was used for the determination of protein concentration. The absorbance of the proteins was measured spectrophotometrically at 595 nm by a microplate reader (Hidex Sense Beta Plus). Protein electrophoresis was performed using Mini-PROTEAN® TGX™ Precast Gels (4561086, Bio-Rad) and then the separated proteins were transferred to a Trans-Blot Turbo Mini 0.2 μm PVDF Transfer Packs membrane (1704158, Bio-Rad) by using Trans-Blot® Turbo™ Transfer System (Bio-Rad). The membrane was blocked with 5% skim milk for 30 min at 4° C. with gentle rocking. After blocking, the membrane was treated with primary antibodies: Anti-BUB1B (HPA008419, Human Protein Atlas, Sweden) and Anti-Beta actin (ab8227, Abcam) as a loading control overnight at 4° C. on a rocking platform. After the treatment of primary antibodies, the membrane was washed three times with TBS-T buffer (A09-7500-100, Medicago). Then, Goat anti-Rabbit IgG-HRP (ab205718, Abcam) was treated as the secondary antibody for 30 min at 4° C. with gentle rocking.

Caki-1 = experiment: Cell Counting Kit-8 (CCK-8) cell viability assay; settings: Caki-1, 24 h; TG-101209 6 nM, NVP-TAE684 3 nM, MK-0752 5 nM, withaferin-a 4 μM, panobinostat 5 nM; vs DMSO
Procedure: Cell culture 1: Human clear cell renal cell carcinoma (ccRCC) cell line Caki-1 was obtained from the Karolinska Institute of Environmental Medicine, Stockholm, Sweden, derived from a ccRCC patient. The cells were cultured in RPMI 1640 medium with 10% fetal bovine serum (FBS) and 1% penicillin/streptomycin. The cells were cultivated at 37° C. in a humidified incubator with 5% CO2. TG-101209, NVP-TAE684, MK-0752, actinomycin-d, and panobinostat were purchased from Selleckchem ([…], […], […], […], […], Selleckchem, Houston, TX, USA), and withaferin-a was purchased from Sigma (W4394, Sigma-Aldrich, Saint Louis, MO, USA). These drugs were dissolved in DMSO. The cells (from cell culture 1) were seeded in a 96-well plate at 20×10^3 cells per well. After seeding for 24 h, the cells were treated for 24 h with the target drugs: TG-101209 (6 nM), NVP-TAE684 (3 nM), MK-0752 (5 nM), withaferin-a (4 μM), actinomycin-d (0.3 nM), and panobinostat (5 nM). The cells in the negative control group were only treated by DMSO for one day. Cell proliferation was detected by Cell Counting Kit-8 (CCK-8) assay. The 10 μl of CCK-8 reagent (1:10) was added to each well of 96-well plate with siRNA transfected cells or drug-treated cells by manufacturer's instruction. The 96-well plate was incubated at 37° C. for 2 hours and then measured absorbance at 450 nm using a microplate reader (Hidex Sense Beta Plus).

Cc1cnc(Nc2ccc(N3CCN(C)CC3)cc2)nc1Nc1cccc(S(=O)(=O)NC(C)(C)C)c1 [TG-101209, reference compound]
cytotoxic effect and dose dependence (Caki-1 cells [1]): dose dependent toxicity | change of IC50 values after 2 days compared to 1 day treatment (Caki-1 cells [2]; Caki-1 (FIG. 53-54)): largest decrease | effect on cell viability (MTT) (Caki-1 cells [2]; Caki-1, 10 μM, 1 day, first batch): most profound effect | IC50 (Caki-1 cells [2]; Caki-1, 1 day (FIG. 43), text: after treatment with 5 μM): ~3000 nM | Ranking, Cell viability (%) (Caki-1 cells [2]; top five, MTT assay, 10 μM, 1 day, rank 1 = greatest reduction): 5 | protein level of BUB1B (Western blot) (BUB1B [3]): significantly decreased; also recorded: significantly reduced | expression levels of BUB1B (Western blot) (BUB1B [4]): significantly lower the expression levels of BUB1B | cell viability (CCK-8) (Caki-1): significantly reduced
